The source of these data is patent EP0306826A1, “N-(substituted alkylidene)fused bicycloalkylidene and hetero-alkylidene quinolinamines, a process for their preparation and their use as medicaments” (HOECHST-ROUSSEL PHARMACEUTICALS INCORPORATED, priority 1987, dated 1989).

The structures appear in SMILES notation.

Assay [1] concerns mice. The assay can be described thus: Dark Avoidance Assay (reversal of scopolamine induced memory deficit). In kind it is in vivo. As to the method: In this assay mice are tested for their ability to remember an unpleasant stimulus for a period of 24 hours. A mouse is placed in a chamber that contains a dark compartment; a strong incandescent light drives it to the dark compartment, where an electric shock is administered through metal plates on the floor. The animal is removed from the testing apparatus and tested again, 24 hours later, for the ability to remember the electric shock.
If scopolamine, an anticholinergic that is known to cause memory impairment, is administered before an animal's initial exposure to the test chamber, the animal re-enters the dark compartment shortly after being placed in the test chamber 24 hours later. This effect of scopolamine is blocked by an active test compound, resulting in a greater interval before re-entry into the dark compartment.
The test results are expressed as the percent of a group of animals in which the effect of scopolamine is blocked, as manifested by an increased interval between being placed in the test chamber and re-entering the dark compartment.

In assay [2] the target is acetylcholinesterase (Homo sapiens, UniProt P22303). Description: Acetylcholinesterase Inhibition Assay (photometric method of Ellman et al.). In kind it is biochemical. In general terms: In Ellman's method for cholinesterases, released thiocholine reacts with DTNB.
Sequence of acetylcholinesterase (P22303 32-614): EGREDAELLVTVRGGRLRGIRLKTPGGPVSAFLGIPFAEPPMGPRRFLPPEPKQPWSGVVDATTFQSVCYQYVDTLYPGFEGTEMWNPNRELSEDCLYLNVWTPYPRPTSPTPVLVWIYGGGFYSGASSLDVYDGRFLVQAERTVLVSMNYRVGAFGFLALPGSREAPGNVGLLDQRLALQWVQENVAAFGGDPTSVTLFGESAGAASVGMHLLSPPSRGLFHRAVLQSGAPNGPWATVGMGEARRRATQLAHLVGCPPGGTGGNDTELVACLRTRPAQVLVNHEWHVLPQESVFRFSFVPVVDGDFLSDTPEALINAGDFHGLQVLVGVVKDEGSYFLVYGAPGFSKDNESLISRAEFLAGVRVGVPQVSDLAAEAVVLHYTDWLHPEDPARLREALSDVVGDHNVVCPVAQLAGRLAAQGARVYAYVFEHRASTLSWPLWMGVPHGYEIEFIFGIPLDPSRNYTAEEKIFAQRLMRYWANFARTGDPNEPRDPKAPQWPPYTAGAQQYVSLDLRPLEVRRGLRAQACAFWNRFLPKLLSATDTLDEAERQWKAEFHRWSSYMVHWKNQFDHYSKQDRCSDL

The IC50 is the concentration that gives 50% inhibition. A low value points to higher potency. As to `C(=Nc1c2c(nc3ccccc13)C1CCC2C1)c1ccccc1` (stereo not shown) [1,4-Methano-N-(phenylmethylene)-1,2,3,4-tetrahydro-9-acridinamine], in assay [1] (mice, dose 0.31 mg/kg of body weight, s.c, retest 24 hours later), the “% of Animals with Scopolamine Induced Memory Deficit Reversal” value is 27%. The molecule further showed a half-maximal inhibitory concentration (IC50) in assay [2] of 12 µM. `FC(F)(F)c1ccc2c(N=Cc3ccccc3)c3c(nc2c1)C1CCC3C1` (stereo not shown) [1,4-Methano-N-(phenylmethylene)-6-trifluoromethyl-1,2,3,4-tetrahydro-9-acridinamine]: in assay [2], half-maximal inhibition (IC50) was put at 22 µM. Regarding `CNC(=O)Oc1ccc2c(c1)[C@]1(C)CCN(C)[C@@H]1N2C` [Physostigmine, reference compound], the “% of Animals with Scopolamine Induced Memory Deficit Reversal” value in assay [1] (mouse, in vivo, 0.31 mg/kg) turned out to be 20%.
